Data from ChEMBL document CHEMBL1135308, “Non-peptide alpha(v)beta(3) antagonists. Part 4: potent and orally bioavailable chain-shortened RGD mimetics” (Bioorg Med Chem Lett, 2002).

What was measured:
[1] = Compound was tested for plasma half life when administered in dog perorally (1 mg/kg) and intravenously (0.2 mg/kg); type: ADME, organism-based, Canis lupus familiaris
[2] = Compound was tested for its ability of plasma clearance when administered in dog perorally (1 mg/kg) and intravenously (0.2 mg/kg); type: ADME, organism-based, Canis lupus familiaris; settings: iv
[3] = Oral bioavailability in dog (1 mg/kg p.o. and 0.2 mg/kg i.v.); type: ADME, organism-based, Canis lupus familiaris; settings: in vivo
[4] = Partition coefficient (logP); type: physicochemical; settings: octanol/water
Homo sapiens = species: Homo sapiens; test: Inhibitory concentration required for 50% inhibition of the rate of ADP-stimulated platelet aggregation; type: functional, organism-based
Integrin alpha-V/beta-3 = Integrin alpha-V/beta-3 (Homo sapiens, UniProt P05106+P06756); test: Inhibition of binding to human alpha V beta3; type: protein-complex assay
Sequence of Integrin alpha-V/beta-3 (P05106 27-788 limits assumed): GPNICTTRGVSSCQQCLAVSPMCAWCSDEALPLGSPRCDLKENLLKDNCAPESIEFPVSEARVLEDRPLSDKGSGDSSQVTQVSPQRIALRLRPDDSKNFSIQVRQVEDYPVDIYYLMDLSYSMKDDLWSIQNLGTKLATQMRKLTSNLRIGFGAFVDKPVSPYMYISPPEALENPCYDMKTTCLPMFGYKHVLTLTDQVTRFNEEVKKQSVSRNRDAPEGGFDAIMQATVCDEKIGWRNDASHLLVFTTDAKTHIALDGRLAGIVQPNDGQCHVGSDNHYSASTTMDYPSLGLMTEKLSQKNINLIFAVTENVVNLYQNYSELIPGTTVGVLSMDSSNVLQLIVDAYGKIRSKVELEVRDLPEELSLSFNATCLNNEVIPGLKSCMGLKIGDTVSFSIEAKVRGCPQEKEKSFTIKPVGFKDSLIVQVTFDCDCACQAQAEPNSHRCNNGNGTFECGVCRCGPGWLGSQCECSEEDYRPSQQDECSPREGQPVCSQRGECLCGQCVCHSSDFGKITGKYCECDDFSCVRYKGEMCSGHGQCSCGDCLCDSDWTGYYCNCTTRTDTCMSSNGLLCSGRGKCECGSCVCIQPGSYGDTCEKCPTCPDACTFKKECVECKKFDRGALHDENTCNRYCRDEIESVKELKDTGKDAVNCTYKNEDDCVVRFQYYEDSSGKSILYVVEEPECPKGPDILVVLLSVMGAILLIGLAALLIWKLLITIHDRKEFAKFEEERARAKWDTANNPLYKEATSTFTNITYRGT
Sequence of Integrin alpha-V/beta-3 (P06756 31-889 limits assumed): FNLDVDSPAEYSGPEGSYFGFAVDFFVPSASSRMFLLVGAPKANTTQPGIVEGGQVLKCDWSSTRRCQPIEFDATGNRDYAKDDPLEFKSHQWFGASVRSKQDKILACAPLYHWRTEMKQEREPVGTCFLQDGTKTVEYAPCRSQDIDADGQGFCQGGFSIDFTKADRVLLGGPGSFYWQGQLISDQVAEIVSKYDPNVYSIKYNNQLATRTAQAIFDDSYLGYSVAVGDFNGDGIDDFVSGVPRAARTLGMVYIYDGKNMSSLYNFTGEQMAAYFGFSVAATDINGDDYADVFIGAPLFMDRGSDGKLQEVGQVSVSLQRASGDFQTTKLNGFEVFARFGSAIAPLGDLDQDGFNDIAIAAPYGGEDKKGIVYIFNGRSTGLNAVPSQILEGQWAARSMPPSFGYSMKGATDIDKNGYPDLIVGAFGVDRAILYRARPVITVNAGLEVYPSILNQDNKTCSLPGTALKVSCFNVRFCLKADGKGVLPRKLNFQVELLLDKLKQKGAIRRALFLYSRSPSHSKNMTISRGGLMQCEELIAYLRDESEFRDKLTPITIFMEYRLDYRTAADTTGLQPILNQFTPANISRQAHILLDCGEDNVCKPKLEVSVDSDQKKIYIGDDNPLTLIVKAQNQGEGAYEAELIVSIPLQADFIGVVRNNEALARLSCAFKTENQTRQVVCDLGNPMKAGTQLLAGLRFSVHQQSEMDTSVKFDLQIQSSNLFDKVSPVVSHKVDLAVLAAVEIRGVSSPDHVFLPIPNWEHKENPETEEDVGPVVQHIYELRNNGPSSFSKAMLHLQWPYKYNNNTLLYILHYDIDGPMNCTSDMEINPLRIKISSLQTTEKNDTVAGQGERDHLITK
Sequence of Integrin alpha-V/beta-3 (P06756 891-1048 limits assumed): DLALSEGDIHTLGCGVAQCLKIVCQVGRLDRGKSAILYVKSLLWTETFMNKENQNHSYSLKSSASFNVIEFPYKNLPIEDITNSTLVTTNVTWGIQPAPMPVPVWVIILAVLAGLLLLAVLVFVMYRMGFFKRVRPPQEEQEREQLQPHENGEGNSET

Question: With `O=C(O)C[C@H](NC(=O)CCCCc1ccc2c(n1)NCCC2)c1cnc2ccccc2c1` as the compound, how does the half-life [1] read?
Answer: 2.4 h

Question: What about the clearance [2] of the same compound?
Answer: 5.8 mL/min/kg

Question: And the bioavailability [3]?
Answer: 65%

Question: What about the logP [4] of the same compound?
Answer: 0.76

Question: What about the IC50 (Homo sapiens) of the same compound?
Answer: 4440 nM

Question: And the IC50 (Integrin alpha-V/beta-3)?
Answer: 1.6 nM

Question: For `O=C(O)C[C@H](NC(=O)CCCCc1ccc2c(n1)NCCC2)c1cncnc1`, which half-life [1] is on record?
Answer: 2.4 h

Question: What about the clearance [2] of the same compound?
Answer: 26 mL/min/kg

Question: And the bioavailability [3]?
Answer: 10%

Question: What about the logP [4] of the same compound?
Answer: -1.21

Question: And the IC50 (Homo sapiens)?
Answer: > 10000 nM

Question: What about the IC50 (Integrin alpha-V/beta-3) of the same compound?
Answer: 3.3 nM

Question: Which IC50 (Integrin alpha-V/beta-3) does the source give for `O=C(O)CCNC(=O)CNC(=O)CCCc1ccc2c(n1)NCCC2` here?
Answer: 48 nM

Question: What does the source list for `O=C(O)C[C@H](NC(=O)CCCCc1ccc2c(n1)NCCC2)c1ccc2nc(O)oc2c1`?
Answer: half-life [1]: 1.2 h; clearance [2]: 37 mL/min/kg; bioavailability [3]: 25%; logP [4]: -0.24; IC50 (Homo sapiens): > 10000 nM; IC50 (Integrin alpha-V/beta-3): 13.1 nM

Question: Which half-life [1] does the source give for `O=C(O)C[C@H](NC(=O)CCCCc1ccc2c(n1)NCCC2)c1ccc2c(c1)OCO2` here?
Answer: 2.4 h

Question: And the clearance [2]?
Answer: 1.2 mL/min/kg

Question: And the bioavailability [3]?
Answer: 94%

Question: And the logP [4]?
Answer: 0.47

Question: What about the IC50 (Homo sapiens) of the same compound?
Answer: > 10000 nM

Question: What about the IC50 (Integrin alpha-V/beta-3) of the same compound?
Answer: 1.5 nM

Question: With `O=C(O)C[C@H](NC(=O)CNC(=O)CCCc1ccc2c(n1)NCCC2)c1cnc2ccccc2c1` as the compound, how does the IC50 (Integrin alpha-V/beta-3) read?
Answer: 0.67 nM

Question: Which IC50 (Integrin alpha-V/beta-3) does the source give for `O=C(O)C[C@H](NC(=O)CCCCCCc1ccc2c(n1)NCCC2)c1cnc2ccccc2c1` here?
Answer: 5.8 nM

Question: With `O=C(O)C[C@H](NC(=O)CCCCc1ccc2c(n1)NCCC2)c1ccc2c(c1)OCC2` as the compound, how does the half-life [1] read?
Answer: 2.5 h

Question: What about the clearance [2] of the same compound?
Answer: 1.2 mL/min/kg

Question: And the bioavailability [3]?
Answer: 99%

Question: What about the logP [4] of the same compound?
Answer: 0.53

Question: What about the IC50 (Homo sapiens) of the same compound?
Answer: > 10000 nM

Question: And the IC50 (Integrin alpha-V/beta-3)?
Answer: 3 nM

Question: For `O=C(O)CCNC(=O)CCCCc1ccc2c(n1)NCCC2`, which IC50 (Integrin alpha-V/beta-3) is on record?
Answer: 500 nM

Question: Which IC50 (Integrin alpha-V/beta-3) does the source give for `O=C(O)C[C@H](NC(=O)CCCCCc1ccc2c(n1)NCCC2)c1cnc2ccccc2c1` here?
Answer: 5.9 nM

Question: For `O=C(O)C[C@H](NC(=O)CCCCc1ccc2c(n1)NCCC2)c1cccc(F)c1`, which half-life [1] is on record?
Answer: 5.5 h

Question: And the clearance [2]?
Answer: 2 mL/min/kg

Question: What about the bioavailability [3] of the same compound?
Answer: 81%

Question: What about the logP [4] of the same compound?
Answer: 0.29

Question: What about the IC50 (Homo sapiens) of the same compound?
Answer: > 10000 nM

Question: And the IC50 (Integrin alpha-V/beta-3)?
Answer: 23 nM
